# Tests used:
# [1] = mouse
# [2] = mouse, microsomes
# [3] = mouse; remark: listed apart in the source
# VEEV TC-83 [4] = conditions: mouse, in vivo; cited from earlier work
# VEEV TC-83 [5] = assay: microbe, parasite or virus in culture; assay type: cell-based; conditions: Venezuelan equine encephalitis virus, Vero 76, 48 h, read-out: VEEV EC50
# VEEV TC-83 [6] = assay type: cell-based, Venezuelan equine encephalitis virus
# [7] = tested on: VEEV Trinidad Donkey (TrD); design: species or system BALB/c mice; conditions: mouse, in vivo
smiles,measurement,setting,value
"CN1CCN(C)/C(=N/c2ccc([N+](=O)[O-])cc2C(=O)Nc2ccccc2)C1 [ML336, (E)-2-((1,4-dimethylpiperazin-2-ylidene)amino)-5-nitro-N-phenylbenzamide]","Plasma stability, % parent after 3h",[1],65.4%
same,"Microsomal stability, % parent after 1h",[2],42.9%
same,"plasma protein binding, % bound at 1 μM",[3],85.0 / 77.0%
same,"plasma protein binding, % bound at 10 μM",[3],85.0 / 77.0%
same,survival rate,VEEV TC-83 [4],71%
same,EC50,VEEV TC-83 [5],32 ± 5 nM
same,VEEV log titer reduction,VEEV TC-83 [6],7.0 ± 0.4 log
same,protection of mice (survival),[7],100%
